Test results as given in PMC10882959, “Gas-Selective Catalytic Regulation by a Newly Identified Globin-Coupled Sensor Phosphodiesterase Containing an HD-GYP Domain from the Human Pathogen Vibrio fluvialis” (Biochemistry, 2024).
“And” between values parts separate entries of the source, which are not always exact repeats. Identical values can stand only once.

Assays:
[1] = target: T1, GCS-HD-GYP (V. fluvialis) (Vibrio fluvialis, UniProt A0AAX2LUU7); assay: HPLC hydrolysis assay, […] nm; format: biochemical; details: 1 mM MnCl2, pH 8.0, 20 °C
T1 construct: gene AL536_01530; full length, C-terminal His6 tag kept, pET-21a (codon-optimized), E. coli BL21(DE3), heme-reconstituted in crude extract; mainly dimer (85 kDa by SEC)

[2] = target: T2, V. furnissii GCS-HD-GYP (Vibrio furnissii, UniProt A0A0Q2RS25); assay: HPLC hydrolysis assay, […] nm; format: biochemical; details: 1 mM MnCl2, pH 8.0, 20 °C; Fe(III) heme form; optimal conditions of V. fluvialis enzyme
T2 construct: gene AMR76_07425; full length, C-terminal His6 tag kept, pET-21a (codon-optimized), E. coli host; dimer

[3] = target: the molecule itself; assay: SEC; Superdex 200 Increase 10/300 GL, 50 mM Tris-HCl pH 8.0, 100 mM NaCl; 100 uL of 20 uM protein injected; mass estimated from standard proteins

Molecule: Nc1nc2c(ncn2[C@@H]2O[C@H](COP(=O)(O)O[C@H]3[C@@H](O)[C@H](n4cnc5c(=O)[nH]c(N)nc54)O[C@@H]3COP(=O)(O)O)[C@@H](O)[C@H]2O)c(=O)[nH]1 [pGpG]
- HPLC hydrolysis assay, 254 nm ([1]; product of c-di-GMP hydrolysis, Fe(III) heme form): conversion of c-di-GMP to a new compound, namely its linearized product pGpG

Molecule: Nc1nc2c(ncn2[C@@H]2O[C@@H]3COP(=O)(O)O[C@H]4[C@@H](O)[C@H](n5cnc6c(=O)[nH]c(N)nc65)O[C@@H]4COP(=O)(O)O[C@H]3[C@H]2O)c(=O)[nH]1 [c-di-GMP]
- HPLC hydrolysis assay, 254 nm ([1]; 0.1 mM c-di-GMP, Fe(III) or Fe(II)-O2 heme form): The Fe(III) and Fe(II)-O2 complexes of GCS-HD-GYP catalyzed the hydrolysis of c-di-GMP to form pGpG
- HPLC hydrolysis assay, 254 nm [2]: the specific activity for the PDE activity of the Fe(III) complex of V. furnissii GCS-HD-GYP

B1: Vibrio furnissii GCS-HD-GYP (enzyme, UniProt A0A0Q2RS25 1-375, looked up)
chain: MEVAFGSDPGNAIRRWASYLAIDQQTVDALREYYWIMERNIDEVLAFVYDHLSSCPETAQFYQNEQSIVRARGHLRDHLMLYVFRGHFGVDYYNATIRIGQTHQRLGIDFKVYSGAYCIVMSQLARVVYQSLAPNIDNIHRYMSALNRAIFLDLGLATAVYYDTACFELEELAYELNFALAKAGEFRDNETGEHIKRISRMSFELAKALGQPAHWCKMIQIASPLHDVGKIGVPDEILLKPGKLDADEWKLMQQHPAIGGDIIPDNKSELIRMARRISLTHHEKWDGSGYPAGLAGEEIPLEGRIVAICDVFDALLSTRPYKRAWSVAEVVAYLRENRAKHFDPLLLDCFLEHLDSMLHIRHQFEDAAQPETVAD
notes: GCS-HD-GYP of Vibrio furnissii, gene AMR76_07425, UniProtKB A0A0Q2RS25; molecular mass 43.9 kDa with the C-terminal His6 tag; The synthetic, codon-optimised gene was put into pET-21a (NdeI/XhoI); also called V. furnissii GCS-HD-GYP; AMR76_07425; source: E. coli, purified; not shown: His6, C-terminal, kept
- stoichiometry N [3]: 2

B2: Vibrio fluvialis GCS-HD-GYP (globin-coupled sensor phosphodiesterase containing an HD-GYP domain) (enzyme, UniProt A0AAX2LUU7 1-375, looked up)
chain: METAFSSEPESVIRRWASYLVIDQQTLNTLREFYWVMEQNIDDILSHVYAHLSSNRETAHFYQDEQSVKRAKAHQREHMMRYVFRGNFGAEYYNATNRIGKTHHKLGIDFKIYSGAYCIVLSQLAGVVYKVLAPEIGNVQRYMTALNRVIFMDMGLATSVYYDTACLELEELAHELNFALAKAGEFRDNETGEHIKRISRMSFELAKAAGQEPHWCKMIQIASPLHDVGKIGVPDDILLKPGKLDEQEWNVMQQHPAMGGVIIPDNKSELIRMARRISLTHHEKWDGSGYPAGLKGEEIPLEGRIVAICDVFDALLSTRPYKRPWSMEEVGTYLRDNRGKHFDPQLLDIFIENLANMQLIRCQFEDAVSPEIVAD
notes: GCS-HD-GYP of Vibrio fluvialis, gene AL536_01530, UniProtKB A0A120L350; full-length protein, predicted mass 44.1 kDa with the C-terminal His6 tag; globin domain residues 1-166, HD-GYP domain residues 169-366; Synthetic, codon-optimised gene in pET-21a (NdeI/XhoI); Mostly a dimer, with a minor tetramer peak by SEC; also called V. fluvialis GCS-HD-GYP; AL536_01530; source: E. coli BL21(DE3), …
- stoichiometry N [3]: 2 and 4
